Measured values: patent US20190060284A1, “PHARMACOLOGICAL MODULATORS OF NAV1.1 VOLTAGE-GATED SODIUM CHANNELS ASSOCIATED WITH MECHANICAL PAIN” (priority 2016, published 2019)
“Also recorded” adds a separate entry of the source. Read-outs that look alike come from different tables or passages of the source.

How the values were obtained:
[1] = system: splanchnic colonic afferents (high-threshold mechanoreceptors); assay: Ex vivo gut-nerve single-unit recordings; type: cell-based, mouse; conditions: for mechanosensitivity of colonic nociceptors: Compound B 100 μM; for Hm1a-induced mechanical hypersensitivity in the presence of the blocker: Hm1a 100 nM, ICA 500 nM or Compound B 100 μM
Experimental: In vitro single-unit extracellular recordings of action potential discharge were made from splanchnic colonic afferents. Recordings were made from healthy or CVH mice using standard protocols^61-63. Baseline mechanosensitivity was determined in response to application of a 2 g von frey hair (vfh) probe to the afferent receptive field for 3 seconds. This process was repeated 3-4 times, separated each time by 10 seconds. Mechanosensitivity was then re-tested after the application of Hm1a (100 nM) or the Nav1.1 blocker ICA-121432 (500 nM) or a combination of both ICA-121432 (500 nM) and Hm1a (100 nM). Data are presented as spikes/s and are expressed as mean±SEM.
Colitis was induced by administration of TNBS as described previously^62,63. Briefly, 13 week old anaesthetized mice were administered an intra-colonic enema of 0.1 mL TNBS (130 μg/mL in 30% EtOH) via a polyethylene catheter^62,63,66. Histological examination of mucosal architecture, cellular infiltrate, crypt abscesses, and goblet cell depletion confirmed significant TNBS-induced damage by day 3 post-treatment, which largely recovered by day 7, and fully recovered by 28 days. […] As such, they are termed ‘chronic visceral hypersensitivity’ (CVH) mice^62,63,66,68.
Ex vivo single-unit extracellular recordings of action potential discharge were made from splanchnic colonic afferents. Recordings were made from healthy or CVH mice using standard protocols (e.g. Brierley, S. M., Jones, R. C., III, Gebhart, G. F. & Blackshaw, L. A. Splanchnic and pelvic mechanosensory afferents signal different qualities of colonic stimuli in mice. Gastroenterology 127, 166-178 (2004)). Baseline mechanosensitivity was determined in response to application of a 2-g Von Frey hair probe to the afferent receptive field for 3 s. This process was repeated 3-4 times, separated each time by 10 s. Mechanosensitivity was then re-tested after the application of Hm1a (100 nM) or the Nav1.1 blocker compound B (100 μM) or a combination thereof. Instantaneous frequency is defined as the inverse of the time interval between an action potential and the previous action potential. Group data are presented as spikes per second and are expressed as mean±s.e.m.

[2] = system: NTG induced mechanical allodynia; assay: NTG-induced hind paw mechanical allodynia (migraine model); type: in vivo, mouse; conditions: for allodynia threshold compared to baseline threshold: 75 and 120 min
Experimental: NTG-induced hind paw mechanical allodynia. Mechanical thresholds were determined with von Frey monofilaments (VFF; eight filaments, range 0.008-2 g, Stoelting Co) using the Dixon up-and-down method^51. For drug testing, 48 naive C57Bl/6 male mice (20-30 g) were divided randomly to the following groups (n=12 mice per group): Vehicle/Cyclodextrin, Vehicle/Compound B 75 mg/kg, NTG/Cyclodextrin, and NTG/Compound B 75 mg/kg. Prior to testing all animals were handled for 1 week in the behavior room during mid-morning using the cupped hand technique^52. On each testing day, a maximum of 12 animals was used, divided equally into the four groups. Mice were confined in clear acrylic cages (8.7″×8.7″×5″) divided into four chambers, each on a raised wire mesh platform that allowed full access to the tested paws. Mice were acclimated for two hours, on the day of testing and one day prior. Mechanical thresholds were evaluated before (baseline), and 75 and 120 min after i.p. administration of 10 mg/kg NTG (or vehicle), in accordance with NTG's time-to-peak-effect (TPE) in this model (data not shown). 40% Cyclodextrin in saline or 75 mg/kg Compound B dissolved in 40% cyclodextrin in saline, was administered contralateral to NTG administration thirty minutes before the first post-NTG time point, in accordance with compound B's TPE. Each filament was applied perpendicular to the center of each of the hind paw five times, spaced 1 sec apart, starting with the middle VFF (0.4 g). In the absence of a response, the next VFF in the series was applied until a response was witnessed. Response to VFF was recorded as an immediate withdrawal of the tested hind paw to the applied stimulus, with or without an observed licking behavior. The withdrawal threshold was quantified as the mean of both hind paws. The experimenter was blind to the treatment group.

[3] = system: cultured somatosensory neurons (TG, DRG); assay: Ratiometric calcium imaging of cultured sensory neurons; type: cell-based, mice or rats
[4] = system: mechanical response thresholds; assay: Von Frey mechanical response thresholds after intraplantar toxin; type: in vivo, mouse; conditions: 500 nM in 10 μl intraplantar, WT mice, 30 minutes after injection
Experimental: For behavioral experiments in FIG. 4, adult mice (6-12 weeks) were used. Male and female mice were first considered separately in hindpaw nocifensive response experiments. […] Therefore, male and female behavioral responses were pooled and subsequent experiments were performed on both male and female mice for CKO and WT littermate experiments, or only male mice for other conditions (e.g. Cap ablation). Nocifensive responses were recorded during a 20 minute observation period immediately following intraplantar injections (10 μl PBS with or without 5 μM Hm1a). Licking/biting behavior was scored as seconds of behavior with the experimenter blinded to injection condition and experimental cohort (WT, CKO or Cap Ablated mice). Hargreaves and Von Frey tests were performed 30 minutes after intraplantar injection of 500 nM Hm1a or Hm1b. I.t. cap ablation was performed as previously described^34, and i.t. cap treated mice were tested on a hot plate to ensure ablation of TRPV1+afferents. Ablation was also confirmed by histology.

[5] = Hm1a-sensitive P0 mouse TG neurons

`Cc1c(C(N)=O)nnn1Cc1ccccc1` [Compound B] was tested, and the “mechanosensitivity of colonic nociceptors” value (shortened to “mechanosensitivity”) ([1]; CVH mice, ICA-121431 500 nM) was “reduced mechanosensitivity in a sub-population; also recorded: inhibition of mechanosensitivity of a subpopulation”, the “Hm1a-induced mechanical hypersensitivity in the presence of the blocker” value (from here on “Hm1a-induced mechanical hypersensitivity”) ([1]; CVH mice) was “not affected by the presence of Hm1a; also recorded: prevents Hm1a-induced potentiation” and the “mechanosensitivity” value ([1]; healthy mice) was “inhibits the mechanosensitivity; also recorded: inhibition of mechanosensitivity of a subpopulation”. The “Hm1a-induced mechanical hypersensitivity” value ([1]; healthy mice) was “inhibits the sensitizing effect of Hm1a toxin; also recorded: prevents Hm1a-induced potentiation”, the “NTG induced tactile allodynia” value ([2]; Compound B 75 mg/kg in 40% cyclodextrin in saline) was “able to reverse NTG induced tactile allodynia” and the “allodynia threshold compared to baseline threshold” value ([2]; NTG 10 mg/kg i.p. + Compound B 75 mg/kg) was “no significant difference”. For the same compound, the “allodynia threshold compared to baseline threshold” value ([2]; Vehicle + Compound B 75 mg/kg) was “no significant difference”.

In the case of `NC1=N[C@H](O)[C@H]2[C@H]3O[C@]4(O)O[C@@H]([C@@H](O)[C@@]2(N1)[C@@H]4O)[C@]3(O)CO` [Tetrodotoxin], the Hm1a-evoked calcium responses [3] is reported as “blocked”.

`C=CCN=C=S` [mustard oil] was tested, and the “toxin-sensitive cells that also respond to the agonist” value [3, 5] was under 13%.

With `CC1CCC(C(C)C)C(O)C1` (centres unmarked) [menthol] the “toxin-sensitive cells that also respond to the agonist” value [3] was 38%.

With SGTx1 the “cohort of neurons excited compared with Hm1a” value ([3]; TG and embryonic DRG neurons) was “excites a larger cohort of TG and embryonic DRG neurons than Hm1a”.

`COc1cc(CNC(=O)CCCC/C=C/C(C)C)ccc1O` [capsaicin] was tested, and the “toxin-sensitive P0 neurons that respond to the agonist (in words)” value [3, 5] was “only a third”.

For `NC(N)=NC(N)=Nc1cccc(Cl)c1` [mCPBG], the “toxin-sensitive cells that also respond to the agonist” value [3, 5] was 52%.

With δ-theraphotoxin-Hm1b the “sensitization to mechanical stimulation” value [4] was “Equivalent mechanical sensitization”.

In the case of `O=C(Nc1ccc(S(=O)(=O)Nc2nccs2)cc1)C(c1ccccc1)c1ccccc1` [ICA-121431], the Hm1a-evoked calcium responses ([3]; blocker 500 nM, Hm1a 500 nM, embryonic DRG and P0 mouse TG cultures) is reported as “greatly diminishes”, the “responses to SGTx1” value ([3]; in presence of ICA-121431) is reported as “only partially blocks” and the “CVH sensitized fibers with reduced mechanosensory responses” value ([1]; CVH mice, blocker 500 nM) is reported as 70%. The “subpopulation of CVH colonic afferents inhibited (inhibited/fibers)” value ([1]; CVH mice, blocker 500 nM) was 7/10, the “mechanosensitivity” value ([1]; CVH mice, ICA-121431 500 nM) was “levels resembling those of baseline controls” and the “Hm1a-induced mechanical hypersensitivity” value ([1]; CVH mice) was “blocks the sensitizing effects of Hm1a”. The “Hm1a-induced mechanical hypersensitivity” value ([1]; CVH mice, listed as ICA-121432) was “failed to induce mechanical hypersensitivity”, the “fibers in which mechanical responses are reduced and Hm1a sensitization blocked” value ([1]; healthy mice, blocker 500 nM) was 50% and the “population of colonic afferents inhibited (inhibited/fibers)” value ([1]; healthy mice, blocker 500 nM) was 5/10. The “Hm1a-induced mechanical hypersensitivity” value ([1]; healthy mice) was “blocks Hm1a sensitization” and the “Hm1a-induced mechanical hypersensitivity” value ([1]; healthy mice, listed as ICA-121432) was “failed to induce mechanical hypersensitivity”.

For `CCCCC[C@H](O)/C=C/[C@H]1[C@H](O)CC(=O)[C@@H]1C/C=C\CCCC(=O)O` [prostaglandin E2], the “percentage of toxin sensitive cells” value ([3]; sensitization of adult neurons prior to toxin exposure) was “greatly enhances”.
